Test results from US12252493B2, “Imidazo[1,2-c]pyrimidine derivatives as PRC2 inhibitors for treating cancer” (Mirati Therapeutics, Inc., priority 2019, dated 2025).
Where two headings read alike, the source gives them in different places.

Experiments:
[1] = tested on: Karpas 422 cells expressing mutant EZH2 (Y641N); assay: Karpas 422 cell viability (Cell Titre Glo) assay; assay type: cell-based, human; details: Homo sapiens, CTG viability, time point (Day 4, Day 7 or Day 11) not given, read-out: IC50, Inhibiting Proliferation of Cells Expressing an Activating Mutant Form of EZH2
Experimental: Karpas 422 cell line is a human B cell non-Hodgkin's lymphoma cell line established from a patient having DLBCL. This EZH2 heterozygotic cell line expresses a mutant form of EZH2 enzyme (Y641N) that increases histone H3 methylation and this mutation has been implicated in the tumorgenesis of lymphomas, such as DLBCL.
Karpas 422 cells (PHE cat no., 06101702) were cultured in RPMI medium supplemented with 20% fetal bovine serum and 1% penicillin/1% streptomycin and plated at a density of 1000 cells/90 μl/well in 96 well white assay plates. A dose response curve for compounds of the present invention was determined by adding a 10 μl aliquot of stock solutions of varying concentrations of compounds to the same medium in each well, over a concentration range of 10 μM using 3-fold dilutions to a final concentration of 1.5 nM. The plates were incubated at 37° C. for predetermined time periods, Day 4, Day 7, or Day 11, and the viability of the cells was measured using a CTG assay kit (Cell Titre Glo; Promega cat. no G7573) on Day 4 and Day 7 in accordance with the manufacturer's instructions.
For the viability assay for the Day 11 plates, the plates were subjected to centrifugation at 1100 rpm for five minutes on Day 7 and the supernatant was removed by aspiration. The cells were resuspended in 90 μl aliquot of the appropriate growth medium lacking the compound followed by addition of 10 μl of a 10× stock of the same compound at the same concentration. The viability of the Day 11 cells was measured using the CTG assay kit described above in accordance with the manufacturer's instructions. The IC50 values for each compound at each predetermined time point were calculated using Graph pad PRISM software and the results are shown in Table 7. Key: A=≤250 nM; B=>250 nM-≤500 nM; C=>500 nM-≤5 μM and N.D.=not determined.

[2] = biological target: purified human, His-tagged PRC2 complex (Homo sapiens (Human), UniProt O75530); assay: Hot Spot HMT assay of PRC2 enzymatic activity (tritiated methyl transfer from SAM to core histone); assay type: biochemical; details: 10 nM purified PRC2 complex, 0.05 mg/ml core histone H3, 1 uM 3H-SAM, 1 hr at 30° C.
Experimental: Ten-point dose-response curves for compounds of the present invention were determined using a Hot Spot HMT assay (Reaction Biology Corp; see Horiuchi et al., Assay Drug Dev Technol. (2013) 4: 227-236 doi: 10.1089/adt.2012.480). The assay uses purified human, His-tagged PRC2 complex, including N-terminal His-tagged EZH2 enzyme, N-terminal Flag-tagged embryonic ectoderm development protein (EED), N-terminal His-tagged suppressor of zeste 12 (SUZ12), N-terminal His-tagged AEBP2, and N-terminal His-tagged RbAp48. In this assay, the transfer of the tritiated methyl group from radiolabeled S-adenosyl methionine (SAM) to purified core histone protein by EZH2 is quantitated after filtration to determine the activity of the core PRC2 complex in the presence and absence of compound.
Briefly, compounds of the present invention were solubilized in DMSO and a series of 10, three-fold serial dilutions were made for each compound in 15% DMSO. The initial starting concentration for the serial dilutions of each compound was 1.0 μM. Control samples lacking compound, EZH2 enzyme or various reaction components also were prepared and processed in parallel with compound test samples. SAH (S-(5-adenosyl)-L-homocysteine) was used as a positive control for assay validation.
An aliquot of each serial dilution of test compound was added to deep 384 well plate using Acoustic Technology instrument (Echo 550, LabCyte) containing reaction buffer (50 mM Tris-HCl (pH 8.)), 0.01% Brij35, 1 mM EDTA, 1 mM DTT, 1 mM PMSF and 1% DMSO), 10 nM purified PRC2 complex and 0.05 mg/ml core histone H3 in a 5 μl volume. The reaction was mixed gently and then pre-incubated for 20 min at 30° C. The enzymatic reaction was initiated by adding 1 uM S-Adenosyl-L-[methyl ^3H]methionine and incubated for 1 hr at 30° C. After 1 hr, the reaction product was detected using a filter binding method and the amount of tritiated H3 core histone was quantitated using a scintillation counter. The IC50 value for each compound was determined from each 10-point dose-response curve using GraphPad Prism software and the results for exemplary compounds of Formula (I) are shown in Table 5. Key: A=≤250 nM; B=>250 nM—≤500 nM; and C=>500 nM—≤2 μM.

[3] = tested on: PRC2-mediated histone H3 methylation (H3 Lys27 trimethylation) in Pfeiffer cells expressing mutant EZH2 (A677G); assay: Tri-Methyl Histone H3 (Lys 27) sandwich ELISA in Pfeiffer cells; assay type: cell-based, human; details: Homo sapiens, read-out: IC50, Inhibition of EZH2-mediated Histone H3 Trimethylation
Excerpt: The Pfeiffer cell line was established from a […] from a patient having metastatic diffuse large B-cell lymphoma (DLBCL). This cell line expresses a mutant form of the EZH2 enzyme (A677G) that results in enhanced EZH2 activity leading to increased methylation of histone H3 Lys27. Increased trimethylation of histone H3 Lys27 is believed to be implicated in tumorgenesis and poor clinical prognosis in lymphomas (McCabe et al., (2012) Nature 492:108-112).
Inhibition of PRC2-mediated histone H3 methylation by compounds of Formula (I) was measured by ELISA using a Tri-Methyl Histone H3 (Lys 27) Sandwich ELISA Kit (Cell Signaling Tech #7866C) in accordance with the manufacturer's instructions. Briefly, Pfeiffer cells were cultured in RPMI medium supplemented with 10% fetal bovine serum and 1% penicillin and 1% streptomycin in 96 well culture plates at 37° C. to a density of 8000 cells/90 μl/well and the cells were harvested. A series of 3-fold serial dilutions of each test compound of Formula (I) were prepared in RPMI medium and added to the cells at final concentrations ranging from 1 μM to 0.15 nM. The plates were incubated at 37° C. for 96 hours.
After incubation, the cells were pelleted by centrifugation in a pre-cooled 4° C. rotor at 1,100 rpm for 10 min and the supernatant was removed by aspiration. The cell pellet was resuspended in 55 μl of Lysis Buffer (0.4M HCl) and incubated on ice with periodic shaking for 30 minutes. The lysed cells were subjected to centrifugation at 4,200 rpm for 10 min at 4° C. and the supernatant containing acid-soluble proteins was collected and the remainder discarded. The acid-soluble proteins were brought to a neutral pH by the addition of 20 μl of Neutralization Buffer (1 M Sodium phosphate, dibasic (pH 12.5), 2.5 mM DTT and 1 mM PMSF) and the neutralized lysates were analyzed by ELISA.
A 65 μl aliquot of each cell lysate was added to a well of a microwell strip, the microwells were sealed using tape and incubated either at 37° C. for two hours or at 4° C. overnight. After incubation, the tape was removed at the microwells were washed four times using 200 μl of 1× Wash Buffer. To each washed microwell, a 100 μl aliquot of an anti-trimethyl histone H3 Lys27 Detection Antibody solution was added and the microwells were incubated at 37° C. for one hour. The Detection Antibody solution was removed by aspiration and the wells were washed four times each using 200 μl of 1× Wash Buffer.
A 100 μl aliquot of an HRP-linked secondary antibody was added to each well, the wells were sealed with tape and incubated at 37° C. for 30 min. The HRP-linked secondary antibody solution was removed by aspiration and the wells were washed four times using 200 μl of 1× Wash Buffer. A 100 μl aliquot of a TMB substrate was added to each well, the wells were sealed with tape and incubated at 37° C. for 10 min or 25° C. for 30 min. The reaction was stopped by the addition of 100 μl aliquot of a STOP solution and the plate was shaken briefly. The degree of histone H3 trimethylation was determined using a spectrophotometric readout by measuring the absorbance at 450 nm and then calculating the amount of trimethylated histone H3. Key: A=≤250 nM; B=>250 nM-≤500 nM; and C=>500 nM-≤5 μM.

[4] = read-out: IC50, Inhibition of PRC2-mediated Enzymatic Activity
[5] = Pfeiffer cells, 96 hours incubation, ELISA

Sequence of purified human, His-tagged PRC2 complex (Q15910 whole entry): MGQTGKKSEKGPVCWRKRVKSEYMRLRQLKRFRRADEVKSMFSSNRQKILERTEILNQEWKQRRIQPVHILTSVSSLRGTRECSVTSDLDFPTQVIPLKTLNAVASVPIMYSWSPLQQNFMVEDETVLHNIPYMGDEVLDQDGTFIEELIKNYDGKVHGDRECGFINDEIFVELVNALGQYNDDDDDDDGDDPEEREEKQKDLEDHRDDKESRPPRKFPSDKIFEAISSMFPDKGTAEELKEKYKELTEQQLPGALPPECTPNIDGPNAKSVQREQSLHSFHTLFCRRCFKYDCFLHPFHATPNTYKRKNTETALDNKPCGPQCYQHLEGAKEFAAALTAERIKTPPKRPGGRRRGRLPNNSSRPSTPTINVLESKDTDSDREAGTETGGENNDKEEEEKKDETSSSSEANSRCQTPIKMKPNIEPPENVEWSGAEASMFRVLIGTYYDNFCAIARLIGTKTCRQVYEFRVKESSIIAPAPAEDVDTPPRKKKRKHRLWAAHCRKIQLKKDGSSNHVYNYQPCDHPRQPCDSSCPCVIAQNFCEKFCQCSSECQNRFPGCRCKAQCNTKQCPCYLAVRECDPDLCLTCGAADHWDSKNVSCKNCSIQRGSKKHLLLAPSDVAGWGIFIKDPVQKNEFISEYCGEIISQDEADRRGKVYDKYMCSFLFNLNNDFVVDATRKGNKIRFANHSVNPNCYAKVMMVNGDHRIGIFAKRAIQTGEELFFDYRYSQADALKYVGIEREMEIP
Sequence of purified human, His-tagged PRC2 complex (O75530 whole entry): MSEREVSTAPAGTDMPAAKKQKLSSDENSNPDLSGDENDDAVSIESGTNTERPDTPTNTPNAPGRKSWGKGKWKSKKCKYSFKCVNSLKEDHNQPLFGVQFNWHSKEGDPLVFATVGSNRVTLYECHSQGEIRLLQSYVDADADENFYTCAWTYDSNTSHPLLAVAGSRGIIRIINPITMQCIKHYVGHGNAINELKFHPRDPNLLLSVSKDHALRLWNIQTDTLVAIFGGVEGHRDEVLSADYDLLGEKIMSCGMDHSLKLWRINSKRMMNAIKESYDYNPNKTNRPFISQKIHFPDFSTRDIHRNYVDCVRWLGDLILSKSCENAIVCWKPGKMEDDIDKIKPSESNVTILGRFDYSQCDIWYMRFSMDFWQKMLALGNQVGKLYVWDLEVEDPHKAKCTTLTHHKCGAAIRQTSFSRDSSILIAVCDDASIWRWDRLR
Sequence of purified human, His-tagged PRC2 complex (Q15022 whole entry partner): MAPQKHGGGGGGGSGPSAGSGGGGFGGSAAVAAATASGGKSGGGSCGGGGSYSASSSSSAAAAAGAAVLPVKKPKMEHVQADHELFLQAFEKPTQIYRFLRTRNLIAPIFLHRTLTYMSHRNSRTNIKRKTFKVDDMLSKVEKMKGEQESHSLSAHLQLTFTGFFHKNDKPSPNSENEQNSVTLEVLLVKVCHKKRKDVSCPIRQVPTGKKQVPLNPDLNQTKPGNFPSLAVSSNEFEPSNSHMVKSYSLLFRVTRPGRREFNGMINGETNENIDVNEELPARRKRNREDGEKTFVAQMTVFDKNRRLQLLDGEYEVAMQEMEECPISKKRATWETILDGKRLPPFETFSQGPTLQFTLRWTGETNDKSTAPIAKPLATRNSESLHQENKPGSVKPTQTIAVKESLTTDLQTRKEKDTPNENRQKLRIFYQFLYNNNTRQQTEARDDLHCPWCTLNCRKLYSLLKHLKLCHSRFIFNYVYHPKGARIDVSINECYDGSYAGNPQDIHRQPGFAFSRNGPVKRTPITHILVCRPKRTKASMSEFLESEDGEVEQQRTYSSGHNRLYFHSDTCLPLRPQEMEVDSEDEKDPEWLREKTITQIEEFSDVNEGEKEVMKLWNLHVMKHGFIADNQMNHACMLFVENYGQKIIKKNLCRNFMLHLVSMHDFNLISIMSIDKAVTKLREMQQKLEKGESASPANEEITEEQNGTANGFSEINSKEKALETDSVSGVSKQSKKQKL
Sequence of purified human, His-tagged PRC2 complex (Q6ZN18 whole entry partner): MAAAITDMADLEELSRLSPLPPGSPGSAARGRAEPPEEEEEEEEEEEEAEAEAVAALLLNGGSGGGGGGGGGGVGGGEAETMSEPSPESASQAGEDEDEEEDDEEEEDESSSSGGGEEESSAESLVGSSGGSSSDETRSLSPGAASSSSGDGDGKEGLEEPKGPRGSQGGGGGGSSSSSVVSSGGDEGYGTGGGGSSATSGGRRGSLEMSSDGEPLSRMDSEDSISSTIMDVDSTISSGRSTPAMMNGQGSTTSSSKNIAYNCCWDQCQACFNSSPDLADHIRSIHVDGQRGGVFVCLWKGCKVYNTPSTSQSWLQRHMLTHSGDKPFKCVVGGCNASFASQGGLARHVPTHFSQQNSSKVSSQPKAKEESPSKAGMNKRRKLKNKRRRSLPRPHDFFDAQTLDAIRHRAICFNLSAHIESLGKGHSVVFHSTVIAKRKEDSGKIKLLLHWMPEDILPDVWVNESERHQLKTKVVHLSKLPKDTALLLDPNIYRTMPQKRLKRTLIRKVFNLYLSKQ
Sequence of purified human, His-tagged PRC2 complex (Q09028 whole entry partner): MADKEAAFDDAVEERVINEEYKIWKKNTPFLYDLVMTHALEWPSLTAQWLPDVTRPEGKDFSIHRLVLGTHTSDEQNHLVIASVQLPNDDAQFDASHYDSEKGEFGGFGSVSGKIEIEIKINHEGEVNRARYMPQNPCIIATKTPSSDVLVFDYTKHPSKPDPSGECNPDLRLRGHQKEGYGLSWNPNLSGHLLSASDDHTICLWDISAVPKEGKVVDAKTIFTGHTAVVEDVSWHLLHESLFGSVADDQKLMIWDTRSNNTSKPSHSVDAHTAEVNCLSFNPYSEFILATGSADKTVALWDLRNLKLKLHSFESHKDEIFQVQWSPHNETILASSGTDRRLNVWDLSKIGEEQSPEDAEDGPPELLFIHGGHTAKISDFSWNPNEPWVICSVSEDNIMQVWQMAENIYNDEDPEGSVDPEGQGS

Compound	IC50 [1] [µM]	IC50 [2, 4] [µM]	IC50 [3, 5] [µM]	IC50 ([2]; IC50, Inhibition of PRC2-mediated Enzymatic Activity) [µM]	IC50 ([3]; Pfeiffer, 96 h) [µM]
COCc1cn2c(NCc3c(F)ccc4c3CCO4)ncc(-c3cc(C)nn3C)c2n1 [Example 9, 8-(1,3-dimethyl-1H-pyrazol-5-yl)-N-((5-fluoro-2,3-dihydrobenzofuran-4-yl)methyl)-2-(methoxymethyl)imidazo[1,2-c]pyrimidin-5-amine]	0.25 to 0.5	0.5 to 2	0.5 to 5	–	–
Cn1nccc1-c1cnc(NCc2c(F)ccc3c2CCO3)n2cc(CN3CCC3)nc12 [Example 29, 2-(azetidin-1-ylmethyl)-N-((5-fluoro-2,3-dihydrobenzofuran-4-yl)methyl)-8-(1-methyl-1H-pyrazol-5-yl)imidazo[1,2-c]pyrimidin-5-amine]	0.5 to 5	0.5 to 2	0.5 to 5	–	–
Cc1cc(-c2cnc(NCc3c(F)ccc4c3CCO4)n3cc(CNCCS(=O)(=O)F)nc23)n(C)n1 [Example 27, 2-(((8-(1,3-dimethyl-1H-pyrazol-5-yl)-5-(((5-fluoro-2,3-dihydrobenzofuran-4-yl)methyl)amino)imidazo[1,2-c]pyrimidin-2-yl)methyl)amino)ethane-1-sulfonyl fluoride]	0.5 to 5	–	–	0.5 to 2	0.5 to 5
COc1ccc(-c2cnc(NCc3c(F)ccc4c3CCO4)n3cc(CN)nc23)c(C)n1 [Example 20, 2-(aminomethyl)-N-((5-fluoro-2,3-dihydrobenzofuran-4-yl)methyl)-8-(6-methoxy-2-methylpyridin-3-yl)imidazo[1,2-c]pyrimidin-5-amine]	< 0.25	< 0.25	0.25 to 0.5	–	–
Cc1cc(-c2cnc(NCc3c(F)ccc4c3CCO4)n3cc(C(C)N)nc23)ccn1 (stereo not drawn) [Example 38, 2-(1-aminoethyl)-N-((5-fluoro-2,3-dihydrobenzofuran-4-yl)methyl)-8-(2-methylpyridin-4-yl)imidazo[1,2-c]pyrimidin-5-amine]	< 0.25	< 0.25	< 0.25	–	–
Cc1cc(S(C)(=O)=O)ccc1-c1cnc(NCc2c(F)ccc3c2CCO3)n2cc(C(C)N)nc12 (stereo not drawn) [Example 34, 2-(1-aminoethyl)-N-((5-fluoro-2,3-dihydrobenzofuran-4-yl)methyl)-8-(2-methyl-4-(methylsulfonyl)phenyl)imidazo[1,2-c]pyrimidin-5-amine]	< 0.25	< 0.25	< 0.25	–	–
Cc1cc(CN(C)C)ccc1-c1cnc(NCc2c(F)ccc3c2CCO3)n2cc(C(C)N)nc12 (stereo not drawn) [Example 37, 2-(1-aminoethyl)-8-(4-((dimethylamino)methyl)-2-methylphenyl)-N-((5-fluoro-2,3-dihydrobenzofuran-4-yl)methyl)imidazo[1,2-c]pyrimidin-5-amine]	< 0.25	< 0.25	< 0.25	–	–

More lines, main results first:

IC50 [1] [µM]	IC50 [2, 4] [µM]	IC50 [3, 5] [µM]	Compound	IC50 ([2]; IC50, Inhibition of PRC2-mediated Enzymatic Activity) [µM]	IC50 ([3]; Pfeiffer, 96 h) [µM]
< 0.25	< 0.25	< 0.25	Cc1ncccc1-c1cnc(NCc2c(F)ccc3c2CCO3)n2cc(C(C)N)nc12 (stereo not drawn) [Example 39, 2-(1-aminoethyl)-N-((5-fluoro-2,3-dihydrobenzofuran-4-yl)methyl)-8-(2-methylpyridin-3-yl)imidazo[1,2-c]pyrimidin-5-amine]	–	–
< 0.25	< 0.25	< 0.25	CC(N)c1cn2c(NCc3c(F)ccc4c3CCO4)ncc(-c3cc(C(F)(F)F)nn3C)c2n1 (stereo not drawn) [Example 36, 2-(1-aminoethyl)-N-((5-fluoro-2,3-dihydrobenzofuran-4-yl)methyl)-8-(1-methyl-3-(trifluoromethyl)-1H-pyrazol-5-yl)imidazo[1,2-c]pyrimidin-5-amine]	–	–
< 0.25	0.5 to 2	0.25 to 0.5	Cc1cc(-c2cnc(NCc3c(F)ccc4c3CCO4)n3cc(CNCc4ccccc4)nc23)n(C)n1 [Example 32, 2-((benzylamino)methyl)-8-(1,3-dimethyl-1H-pyrazol-5-yl)-N-((5-fluoro-2,3-dihydrobenzofuran-4-yl)methyl)imidazo[1,2-c]pyrimidin-5-amine]	–	–
< 0.25	< 0.25	< 0.25	Cn1nccc1-c1cnc(NCc2c(F)ccc3c2CCO3)n2cc(CN)nc12 [Example 18, 2-(aminomethyl)-N-((5-fluoro-2,3-dihydrobenzofuran-4-yl)methyl)-8-(1-methyl-1H-pyrazol-5-yl)imidazo[1,2-c]pyrimidin-5-amine]	–	–
< 0.25	< 0.25	< 0.25	Cc1cc(-c2cnc(NCc3c(F)ccc4c3CCO4)n3cc(C(N)C4CC4)nc23)n(C)n1 (stereo not drawn) [Example 41, 2-(amino(cyclopropyl)methyl)-8-(1,3-dimethyl-1H-pyrazol-5-yl)-N-((5-fluoro-2,3-dihydrobenzofuran-4-yl)methyl)imidazo[1,2-c]pyrimidin-5-amine]	–	–
